The values below are quoted from earlier work in patent US12324431B2, “Compositions and methods for scalable production and delivery of biologicals” (priority 2017, dated 2025).

The data set concerns insects. The note with it: potency similar to imidacloprid.

Consider “orally active insecticidal peptide-1 [OAIP-1]”, for which the toxicity to insects result was “highly toxic”.
